# Source: paper PMC9487510, “A Novel Oral GyrB/ParE Dual Binding Inhibitor Effective against Multidrug-Resistant Neisseria gonorrhoeae and Other High-Threat Pathogens” (Antimicrobial Agents and Chemotherapy, 2022)
# “And” between values parts separate entries of the source, which are not always exact repeats. Equal values may be shown once. Read-outs that look alike come from different tables or passages of the source.
# What was measured:
# E. coli = tested on: E. coli; parameters: method as in PMID 28483959, PMID 31315953; settings: cited from earlier work
# VRSA [1] = settings: cited from earlier work
# C. difficile BAA-1805 = assay: Hamster C. difficile colitis model; assay type: in vivo, Golden Syrian hamster
# C. difficile = assay: MIC, toxigenic C. difficile panel (CLSI); assay type: cell-based, Clostridioides difficile; settings: for MIC: Clostridioides difficile
# S. aureus VRSA, VRS-2 = assay: Neutropenic murine thigh infection model; assay type: in vivo, mouse (ICR); settings: 26 h after infection
# VISA = assay: MIC, in vitro susceptibility testing (CLSI); assay type: cell-based, Staphylococcus aureus; settings: for MIC: Staphylococcus aureus, VISA
# MRSA = assay: MIC, in vitro susceptibility testing (CLSI); assay type: cell-based, Staphylococcus aureus
# MRSE = assay: MIC, in vitro susceptibility testing (CLSI); assay type: cell-based, Staphylococcus epidermidis
# [2] = Mouse pharmacokinetics of JSF-2659; assay type: in vivo; settings: oral administration in mice; data not shown
# [3] = Kinetic aqueous solubility; assay type: physicochemical
# [4] = tested on: Neisseria gonorrhoeae strain H041; assay: Estradiol-treated mouse model of cervico-vaginal infection, strain H041; assay type: in vivo, mouse (BALB/c); settings: for percentage of mice colonized over 8 culture days after treatment: vs vehicle
# [5] = tested on: N. gonorrhoeae (ATCC 700825); assay: Intravaginal infection model, ovariectomized BALB/c mice, strain ATCC 700825; assay type: in vivo, mouse (BALB/c); settings: for killing effect relative to the baseline group: 26, 76 and 170 h after infection; for killing effect (bacterial counts in vaginal lavage): 26 h postinfection
# [6] = Liver microsome stability, mouse; assay type: in vitro ADME; settings: male, CD-1, mouse, liver microsomes, pH 7.4
# Method: Liver microsome stability assays were performed by BioDuro Inc. Human and mouse (CD-1 male) liver microsomes were used. […] Next, 50 μL of reaction buffer was added to solution and mixed via pipetting up and down 6 times. At each time point of 0, 30, and 60 min, an aliquot of 20 μL was removed from each tube. Liver microsomes (LM) working solution was prepared in 0.05 M phosphate reaction buffer (pH = 7.4) to a final concentration of 1.27 mg/mL. NADPH solution was prepared in 0.05 M phosphate buffer to afford a 5 mM buffer solution. […] After vortexing and incubating for 5 min (37°C), 50 μL of NADPH solution was added and mixed via pipetting. At each time point of 0, 5, 15, 30, and 60 min, an aliquot of 20 μL was removed from each tube. Next, 250 μL of quenching solution was aliquoted to quench the reaction, which was then vortexed for 1 min and placed on ice for 40 min. After centrifugation at 4,000 × g for 15 min, 100 μL of supernatant was transferred using a multichannel pipette to 0.65-mL tubes. Samples were diluted with MeOH: H2O (1:1) as necessary. Samples were analyzed by high-pressure liquid chromatography coupled to tandem mass spectrometry (LC/MS/MS) performed on a Sciex Applied Biosystems Qtrap 4000 triple-quadrupole mass spectrometer coupled to a Shimadzu HPLC system to quantify the remaining compound. Data were processed using Analyst software (version 1.4.2; Applied Biosystems Sciex). […] Metabolite identification on the microsomal extracts was performed using a Q-Exactive HRMS coupled with an Ultimate 3000 HPLC system and a Kinetix C18 2.1 × 50-mm 2.6-μm HPLC column.
# VRSA [7] = assay: MIC, in vitro susceptibility testing (CLSI); assay type: cell-based, Staphylococcus aureus; settings: Staphylococcus aureus, VRSA
# N. gonorrhoeae = settings: QC strain ATCC 49926; cited from earlier work
# S. aureus = settings: organism not named in the sentence (context MRSA/S. aureus); cited from earlier work
compound,measurement,setting,value
C[C@@H]1CN2c3c(cc4c(N5C(=O)OC[C@@H]5C)noc4c3F)CC3(C(=O)NC(=O)NC3=O)[C@H]2[C@H](C)O1 [zoliflodacin],MIC,E. coli,4 µg/mL
"CN[C@H](CC(C)C)C(=O)N[C@H]1C(=O)N[C@@H](CC(N)=O)C(=O)N[C@H]2C(=O)N[C@H]3C(=O)N[C@H](C(=O)N[C@H](C(=O)O)c4cc(O)cc(O)c4-c4cc3ccc4O)[C@H](O)c3ccc(c(Cl)c3)Oc3cc2cc(c3O[C@@H]2O[C@H](CO)[C@@H](O)[C@H](O)[C@H]2O[C@H]2C[C@](C)(N)[C@H](O)[C@H](C)O2)Oc2ccc(cc2Cl)[C@H]1O [Van, vancomycin]",MIC,VRSA [1],> 64 µg/mL
same,survival,C. difficile BAA-1805; 20 mg/kg PO BID for 5 days,100%
same,MIC range,C. difficile,0.5 to 1 µg/mL
same,MIC,C. difficile,1 µg/mL
same,MIC,C. difficile; BAA1805,0.5 µg/mL
same,MIC,C. difficile; BAA1808,0.5 µg/mL
same,MIC,C. difficile; BAA1874,0.5 µg/mL
same,MIC,C. difficile; BAA1875,0.5 µg/mL
same,bacterial count reduction in thigh,"S. aureus VRSA, VRS-2; SC 100 mg/kg TID",2.09 log10
same,MIC range,VISA,3.125 to 12.5 µg/mL
same,MIC,MRSA,1.0 µg/mL
same,MIC range,MRSA,0.5 to 1 µg/mL
same,MIC,"MRSA; Staphylococcus aureus, MRSA",0.5 µg/mL
same,MIC range,MRSE,0.5 to 1 µg/mL
same,MIC,"MRSE; Staphylococcus epidermidis, MRSE",0.5 µg/mL
CNc1cc(F)cc2c1[nH]c1nc(Oc3cnc(C)nc3)nc(N3CCC4(CC3)CO[C@@H](COP(=O)(O)O)C4)c12 [JSF-2659],conversion by host phosphatases to JSF-2414,[2],> 99%
same,"survival, 14-day observation",C. difficile BAA-1805; 20 mg/kg PO BID for 5 days,100%
same,"survival, 14-day observation",C. difficile BAA-1805; 100 mg/kg PO BID for 5 days,100%
same,"survival, 14-day observation",C. difficile BAA-1805; 250 mg/kg PO BID for 5 days,100%
same,body weight change during the 14-day observation period,"C. difficile BAA-1805; 20, 100 and 250 mg/kg PO BID, relative to the positive controls",No significant loss of body weight
same,increase of solubility over the parent drug candidate,[3]; JSF-2659 vs JSF-2414,764 fold
same,solubility kinetic,[3]; aqueous medium (not further specified),440 µM
same,bacterial count reduction in thigh relative to vehicle control,"S. aureus VRSA, VRS-2; PO 100 mg/kg QD",0.95 log10
same,bacterial count reduction in thigh relative to vehicle control,"S. aureus VRSA, VRS-2; PO 100 mg/kg TID",4.84 log10
same,bacterial count reduction in thigh relative to vehicle control,"S. aureus VRSA, VRS-2; PO 250 mg/kg QD",4.42 log10
same,bacterial count reduction in thigh relative to vehicle control,"S. aureus VRSA, VRS-2; PO 250 mg/kg TID, 250 mg/kg",6.26 log10 and > 6.2 log10
same,percentage of mice colonized over 8 culture days after treatment,[4]; 75 mg/kg TID (q 6 h) PO,significant reduction in the percentage of mice colonized
same,percentage of mice colonized over 8 culture days after treatment,[4]; 250 mg/kg QD PO,significant reduction in the percentage of mice colonized
same,percentage of mice colonized over 8 culture days after treatment,[4]; 250 mg/kg TID (q 6 h) PO,significant reduction in the percentage of mice colonized
same,average CFU/mL recovered after 48 h of treatment,"[4]; 250 mg/kg TID PO, vs vehicle (P = 0.058)",significantly reduced compared to the vehicle control
same,average CFU per mL of vaginal swab suspension over time,"[4]; 250 mg/kg TID PO, P = 0.004",significantly different than the vehicle control group
same,killing effect relative to the baseline group,[5]; IM 75 mg/kg QD,> 3 log10
same,killing effect relative to the baseline group,[5]; IM 250 mg/kg QD,> 3 log10
same,killing effect relative to the baseline group,[5]; PO 75 mg/kg TID,> 3 log10
same,killing effect relative to the baseline group,[5]; PO 250 mg/kg QD,> 3 log10
same,killing effect relative to the baseline group,[5]; PO 250 mg/kg TID,> 3 log10
same,killing effect (bacterial counts in vaginal lavage),"[5]; IM 75 mg/kg QD, relative to control",3.51 log10
same,killing effect (bacterial counts in vaginal lavage),"[5]; IM 250 mg/kg QD, relative to control",3.39 log10
same,killing effect (bacterial counts in vaginal lavage),"[5]; PO 75 mg/kg QD, relative to baseline group",1 log10
same,killing effect (bacterial counts in vaginal lavage),"[5]; PO 75 mg/kg TID, relative to control",3.51 log10
same,killing effect (bacterial counts in vaginal lavage),"[5]; PO 250 mg/kg QD, relative to control",3.51 log10
same,killing effect (bacterial counts in vaginal lavage),"[5]; PO 250 mg/kg TID, relative to control",3.51 log10
same,reduction of burden to the limit of detection,[5]; dose-dependent oral administration,~ 4.5 log10
same,microsomal CLint at 1 μM,[6]; read-out: MLM Clint,0.5 µL/min/mg
same,half-life at 1 μM,[6]; read-out: MLM t1/2,23.1 h
"CO[C@H]1/C=C/O[C@@]2(C)Oc3c(C)c(O)c4c(O)c(c(/C=N/N5CCN(C)CC5)c(O)c4c3C2=O)NC(=O)/C(C)=C\C=C\[C@H](C)[C@H](O)[C@@H](C)[C@@H](O)[C@@H](C)[C@H](OC(C)=O)[C@@H]1C [Rif, rifampicin]",MIC,VRSA [7]; strain 2 25 23,< 0.078 µg/mL
same,MIC,VRSA [7]; strain 2 25 24,< 0.078 µg/mL
same,MIC,VRSA [7]; strain 2 25 25,< 0.078 µg/mL
same,MIC,VRSA [7]; strain 2 25 26,< 0.078 µg/mL
same,MIC,VRSA [7]; strain 2 25 27,< 0.078 µg/mL
same,MIC,VRSA [7]; strain 2 25 28,< 0.078 µg/mL
same,MIC,VRSA [7]; strain VRS2 (VRS-2),> 10 µg/mL
same,MIC,VISA; strain 2 11 43,< 0.078 µg/mL
same,MIC,VISA; strain 2 11 56,> 10 µg/mL
same,MIC,VISA; strain 2 11 57,< 0.078 µg/mL
same,MIC,VISA; strain 2 11 61,< 0.078 µg/mL
same,MIC,VISA; strain 2 11 71,> 10 µg/mL
same,MIC,VISA; strain 2 11 78,< 0.078 µg/mL
same,MIC,VISA; strain 2 11 86,> 10 µg/mL
same,MIC,VISA; strain 2 13 52,> 10 µg/mL
O=c1ccc2ncc(=O)n3c2n1C[C@H]3CN1CCC(NCc2cc3c(cn2)OCCC3)CC1 [Gepotidacin],modal MIC,N. gonorrhoeae,0.5 µg/mL
same,MIC90,S. aureus,0.5 µg/mL
same,MIC,E. coli,4 µg/mL
CC(=O)NC[C@H]1CN(c2ccc(N3CCOCC3)c(F)c2)C(=O)O1 [linezolid],bacterial count reduction in thigh,"S. aureus VRSA, VRS-2; PO 50 mg/kg BID",3.41 log10
"CNC(C)C1CCC(N)C(OC2C(N)CC(N)C(OC3OCC(C)(O)C(NC)C3O)C2O)O1 (stereo not shown) [GEN, gentamicin]",average CFU per mL of vaginal swab suspension over time,"[4]; 48 mg/kg, 5 QD, IP, P = 0.007",significantly different than the vehicle control group
same,reduction in the bacterial counts,"[5]; 26 h, IP 48 mg/kg QD, relative to vehicle or baseline",No significant reduction in the bacterial counts
